From patent US8205612B2, “Dry powder aerosol generator” (The University of North Carolina at Chapel Hill, NC, priority 2007, dated 2012)

Conditions: in vivo, iv, 20 mg/kg
Protocol: Where F is the absolute bioavailability, AUCLUNG and DLUNG are the area under the curve and dose, respectively, for drug administration through the lung. AUCIV and DIV are areas under the curve and dose, respectively, of drug administered intravenously. From internal PK Studies performed, it is known that F equals 0.54 for capreomycin particles administered through the lungs, AUCIV equals 48.47 μgh/ml, and DIV equals 20 mg/kg.

## capreomycin
  AUCIV: 48.47 μgh/ml
